One compound from patent publication US7544666B2, “NAP derivatives” (Industrial Technology Research Institute, priority 2005, dated 2009) can be followed below.

The series can be described thus: Pharmacokinetics after single subcutaneous dose in rats. Particulars: rat, 1 mg/kg subcutaneous. In kind it is in vivo. As to the method: A single dosage of NAP and the NAP derivative of BMEC-NAP0706 were subcutaneously administered to rats respectively, and blood samples were obtained at different time intervals. The blood samples were subjected to LC-MS/MS analysis to measure the concentration of NAP and the NAP derivative. A time-plasma concentration relationship was established and pharmacokinetic parameters were calculated. The procedures are described below.
Long Evans rats with body weight between 220 to 240 g were obtained from the National Laboratory Animal Center, Taiwan and caged in the laboratory animal housing in the Industrial Technology Research Institute, Taiwan. The Breeding procedure follows the “Guide for the Care and Use of Laboratory Animals” established by the Chinese Society of Laboratory Animal Sciences. The rats were kept on an alternating 12-hour light and 12-hour dark schedule with sufficient feed and water until they reached the body weight between 280 to 300 g.
Each rat was weighed before the pharmacokinetic examination to estimate its own dosage. The tested drug dissolved in PBS was formulated to achieve the amount of one dosage between 0.28 to 0.32 mL. Each rat was subcutaneously administered with 1 mg/kg of the tested drug. 0.3 mL of blood samples were collected from the saphenous vein in medial thigh of the rat before and 0.25-, 0.5-, 0.75-, 1-, 2-, 4-, 24-hour after administration. Whole blood was centrifuged under 3500 rpm for 10 min and supernatant (serum) was moved to a clean 1.5 mL eppendorf and stored at −80° C.
Sample pretreatment was as follows: The frozen serum was thawed in an ice bath. One hundred μL of the serum was moved to a clean 1.5 mL eppendorf and 10 μL of internal standard material was added. The mixture was added with 200 μL ACN and mixed again. The sample was centrifuged under 14000 rpm at 4° C. for 10 min, and the supernatant was moved to the other clean eppendorf and dried in a vacuum system at 60° C. for 30 min. The dried sample was dissolved in 900 μL ddH2O. The sample was added to a solid phase extraction column previously activated with methanol and ddH2O. After the sample passed through, the extraction column was washed with ddH2O alone and then ddH2O containing 5% ACN and 0.1% TFA. The sample was dissolved from the extraction column with ACN containing 0.1% TFA and dried under a vacuum system at 60° C. for 1 hour. The dried sample was redissolved with 100 μL of ddH2O containing 50% ACN. The sample was analyzed with HPLC-MS/MS system.
The sample analysis was as described below. 20 μL of the sample was poured into the HPLC-MS/MS system. The solvent system was applied in gradient partitioning: 90% A (H2O/ACN=98/2, 0.1% F.A.) and 10% B (H2O/ACN=20/80, 0.1% F.A.) at 0-3 min; 10% A and 90% B at 3-6.5 min; 90% A and 10% B again at 6.5-15 min. The flow rate was 0.2 mL/min. The column was ZORBAX C18, 5 μm, 2.1×50 mm (Agilent) and the detector was ABI 4000 Q Trap. Each sample was analyzed for 15 min. The results were compared with the standard calibration curve to estimate the concentration of each sample. All data was statistically analyzed with Excel or WinNonlin.

Broadly, the AUC is the area under the concentration-time curve, a measure of exposure. Read a low AUC as less exposure. For orientation: Cmax means the peak of the concentration-time curve. One may read the Tmax as the time at which the peak concentration occurs. Regarding `CC[C@H](C)[C@H](NC(=O)[C@H](CO)NC(=O)[C@@H](NC(=O)[C@@H]1CCCN1C(=O)[C@H](C)NC(=O)[C@@H](N)CC(N)=O)C(C)C)C(=O)N1CCC[C@H]1C(=O)N[C@@H](CCC(N)=O)C(=O)O` [BMEC-NAP, H-NAPVSIPQ-OH, reference compound], the TNAP-max is on record as 0.25 h and the “time required to reach the highest concentration” value stood at 0.25 h. Where the note is “in vivo, sc”, the AUC amounted to 55.8 ng·h/mL, the Cmax turned out to be 55.5 ng/mL and the Tmax amounted to 15 min. In addition, the half-life (in vivo, sc, read-out: T½ (converted)) was 51 min.
